Reference: patent US20260355196A1, “INHIBITORS AND DEGRADERS OF PIP4K PROTEIN” (Larkspur Biosciences, Inc., priority 2023, published 2026)

Each compound was assayed against T1, PIP4K2C (Homo sapiens, UniProt Q8TBX8) (assay: HiBiT PIP4K2C degradation assay in MOLT-4 cells (endogenous PIP4K2C C-terminally tagged with HiBiT)). Conditions: 6 hours of incubation time, rather than 24 hours; MOLT-4, top concentration 10 micromolar; read-out: HiBIT-degradation MOLT4 PIP4k2C DC50 (6 hours, marked *).
T1 sequence (Q8TBX8 1-421): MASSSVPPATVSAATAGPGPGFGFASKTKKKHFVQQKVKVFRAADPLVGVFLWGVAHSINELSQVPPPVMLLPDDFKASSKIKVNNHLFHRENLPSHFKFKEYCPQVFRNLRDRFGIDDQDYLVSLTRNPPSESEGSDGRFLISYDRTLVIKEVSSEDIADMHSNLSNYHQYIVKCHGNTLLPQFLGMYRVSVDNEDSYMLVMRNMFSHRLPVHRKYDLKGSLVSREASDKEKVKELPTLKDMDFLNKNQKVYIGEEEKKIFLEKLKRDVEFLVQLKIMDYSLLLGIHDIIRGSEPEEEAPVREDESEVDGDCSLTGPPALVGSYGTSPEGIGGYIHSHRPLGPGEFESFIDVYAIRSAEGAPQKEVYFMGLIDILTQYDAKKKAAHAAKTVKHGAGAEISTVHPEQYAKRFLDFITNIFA
Type: cell-based
Design: untagged in primary human PBMCs and monocyte-derived dendritic cells
Procedure, shortened: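 Luminescent HiBiT lytic readout of residual PIP4K2C-HiBiT (CRISPR knock-in, MOLT-4, phenol red-free RPMI-1640 + 10% FBS). Cells exposed 6 or 24 h at 37 C to compound, top 10 micromolar, 3-fold, 10 points, duplicate. Hill fit (Levenberg-Marquardt) gives DC50.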

Row | SMILES | DC50 [nM]
1 | Cc1ccc(=O)n(-c2cccc(-c3nc(N[C@H]4CC[C@H](NC(=O)[C@H]5CC[C@H](N6CCC(c7ccc(NC8CCC(=O)NC8=O)cc7F)CC6)CC5)CC4)ncc3F)c2)c1 (stereo partly drawn) [Compound 574, trans-(1r,4R)-4-(4-(4-((2,6-dioxopiperidin-3-yl)amino)-2-fluorophenyl)piperidin-1-yl)-N-((1r,4R)-4-((5-fluoro-4-(3-(5-methyl-2-oxopyridin-1 (2H)-yl)phenyl)pyrimidin-2-yl)amino)cyclohexyl)cyclohexane-1-carboxamide] | < 500
2 | O=C1CCC(Nc2ccc(C3CCN([C@H]4CC[C@H](C(=O)N[C@H]5CC[C@H](Nc6ncc(F)c(-c7cccc(N8CCCOC8=O)c7)n6)CC5)CC4)CC3)c(F)c2)C(=O)N1 (stereo partly drawn) [Compound 576, trans-(1r,4R)-4-(4-(4-((2,6-dioxopiperidin-3-yl)amino)-2-fluorophenyl)piperidin-1-yl)-N-((1r,4R)-4-((5-fluoro-4-(3-(2-oxo-1,3-oxazinan-3-yl)phenyl)pyrimidin-2-yl)amino)cyclohexyl)cyclohexane-1-carboxamide] | < 500
3 | O=C1CCC(Nc2ccc(C3CCN(CC4(O)CCN(C(=O)[C@H]5CC[C@H](Nc6ncc(F)c(-c7cccc(N8CCOCC8=O)c7)n6)CC5)CC4)CC3)c(F)c2)C(=O)N1 (stereo partly drawn) [Compound 578, trans-3-((3-fluoro-4-(1-((1-(4-((5-fluoro-4-(3-(3-oxomorpholino)phenyl)pyrimidin-2-yl)amino)cyclohexane-1-carbonyl)-4-hydroxypiperidin-4-yl)methyl)piperidin-4-yl)phenyl)amino)piperidine-2,6-dione] | < 500
4 | O=C1CCC(Nc2ccc(C3CCN(CC4(O)CCN(C(=O)[C@H]5CC[C@H](Nc6ncc(F)c(-c7cccc(N8CCCCC8=O)c7)n6)CC5)CC4)CC3)c(F)c2)C(=O)N1 (stereo partly drawn) [Compound 579, 3-((3-fluoro-4-(1-((1-(trans-4-((5-fluoro-4-(3-(2-oxopiperidin-1-yl)phenyl)pyrimidin-2-yl)amino)cyclohexane-1-carbonyl)-4-hydroxypiperidin-4-yl)methyl)piperidin-4-yl)phenyl)amino)piperidine-2,6-dione] | < 500
5 | O=C1CCC(Nc2ccc(C3CCN(CC4(O)CCN(C(=O)[C@H]5CC[C@H](Nc6ncc(F)c(-c7cccc(-c8ccc[nH]c8=O)c7)n6)CC5)CC4)CC3)c(F)c2)C(=O)N1 (stereo partly drawn) [Compound 581, 3-((3-fluoro-4-(1-((1-(trans-4-((5-fluoro-4-(3-(2-oxo-1,2-dihydropyridin-3-yl)phenyl)pyrimidin-2-yl)amino)cyclohexane-1-carbonyl)-4-hydroxypiperidin-4-yl)methyl)piperidin-4-yl)phenyl)amino)piperidine-2,6-dione] | < 500
6 | O=C1CCC(Nc2ccc(N3CCN(CC4(O)CCN(C(=O)[C@H]5CC[C@H](Nc6ncc(F)c(-c7cccc(-c8ccc[nH]c8=O)c7)n6)CC5)CC4)CC3)c(F)c2)C(=O)N1 (stereo partly drawn) [Compound 584, trans-3-((3-fluoro-4-(4-((1-(4-((5-fluoro-4-(3-(2-oxo-1,2-dihydropyridin-3-yl)phenyl)pyrimidin-2-yl)amino)cyclohexane-1-carbonyl)-4-hydroxypiperidin-4-yl)methyl)piperazin-1-yl)phenyl)amino)piperidine-2,6-dione] | > 5000
7 | O=C1CCC(Nc2ccc(N3CCC(N4CCC(C(=O)N[C@H]5CC[C@H](Nc6ncc(F)c(-c7cccc(N8CCOCC8=O)c7)n6)CC5)CC4)CC3)c(F)c2)C(=O)N1 (stereo partly drawn) [Compound 585, trans-1′-(4-((2,6-dioxopiperidin-3-yl)amino)-2-fluorophenyl)-N-(4-((5-fluoro-4-(3-(3-oxomorpholino)phenyl)pyrimidin-2-yl)amino)cyclohexyl)-[1,4′-bipiperidine]-4-carboxamide] | < 500
8 | O=C1CCC(Nc2ccc(N3CCC(N4CCC(C(=O)N[C@H]5CC[C@H](Nc6ncc(F)c(-c7cccc(N8CCCCC8=O)c7)n6)CC5)CC4)CC3)c(F)c2)C(=O)N1 (stereo partly drawn) [Compound 587, 1′-(4-((2,6-dioxopiperidin-3-yl)amino)-2-fluorophenyl)-N-(trans-4-((5-fluoro-4-(3-(2-oxopiperidin-1-yl)phenyl)pyrimidin-2-yl)amino)cyclohexyl)-[1,4′-bipiperidine]-4-carboxamide] | < 500

Other lines, results leading:

Row | DC50 [nM] | SMILES
9 | < 500 | O=C1CCC(Nc2ccc(C3CCN([C@H]4CC[C@H](C(=O)N[C@H]5CC[C@H](Nc6ncc(F)c(-c7ccnc(N8CCCCC8=O)c7)n6)CC5)CC4)CC3)c(F)c2)C(=O)N1 (stereo partly drawn) [Compound 571, trans-(1r,4R)-4-(4-(4-((2,6-dioxopiperidin-3-yl)amino)-2-fluorophenyl)piperidin-1-yl)-N-((1r,4R)-4-((5-fluoro-4-(2-(2-oxopiperidin-1-yl)pyridin-4-yl)pyrimidin-2-yl)amino)cyclohexyl)cyclohexane-1-carboxamide]
10 | < 500 | O=C1CCC(Nc2ccc(C3CCN([C@H]4CC[C@H](C(=O)N[C@H]5CC[C@H](Nc6ncc(F)c(-c7ccnc(N8CCCOC8=O)c7)n6)CC5)CC4)CC3)c(F)c2)C(=O)N1 (stereo partly drawn) [Compound 572, trans-(1r,4R)-4-(4-(4-((2,6-dioxopiperidin-3-yl)amino)-2-fluorophenyl)piperidin-1-yl)-N-((1r,4R)-4-((5-fluoro-4-(2-(2-oxo-1,3-oxazinan-3-yl)pyridin-4-yl)pyrimidin-2-yl)amino)cyclohexyl)cyclohexane-1-carboxamide]
11 | < 500 | O=C1CCC(Nc2ccc(C3CCN([C@H]4CC[C@H](C(=O)N[C@H]5CC[C@H](Nc6ncc(F)c(-c7ccnc(-n8ccccc8=O)c7)n6)CC5)CC4)CC3)c(F)c2)C(=O)N1 (stereo partly drawn) [Compound 573, trans-(1r,4R)-4-(4-(4-((2,6-dioxopiperidin-3-yl)amino)-2-fluorophenyl)piperidin-1-yl)-N-((1r,4R)-4-((5-fluoro-4-(2-oxo-2H-[1,2′-bipyridin]-4′-yl)pyrimidin-2-yl)amino)cyclohexyl)cyclohexane-1-carboxamide]
12 | < 500 | O=C1CCC(Nc2ccc(N3CCC(N4CC5(CC(C(=O)N[C@H]6CC[C@H](Nc7ncc(F)c(-c8cccc(-n9ccccc9=O)c8)n7)CC6)C5)C4)CC3)c(F)c2)C(=O)N1 (stereo partly drawn) [Compound 575, trans-2-(1-(4-((2,6-dioxopiperidin-3-yl)amino)-2-fluorophenyl)piperidin-4-yl)-N-((1r,4r)-4-((5-fluoro-4-(3-(2-oxopyridin-1(2H)-yl)phenyl)pyrimidin-2-yl)amino)cyclohexyl)-2-azaspiro[3.3]heptane-6-carboxamide]
13 | > 5000 | O=C1CC[C@@H](Nc2ccc(N3CCC(N4CCC(C(=O)N[C@H]5CC[C@H](Nc6ncc(F)c(-c7cccc(-c8ccc[nH]c8=O)c7)n6)CC5)CC4)CC3)c(F)c2)C(=O)N1 [Compound 577, trans-1′-(4-(((R)-2,6-dioxopiperidin-3-yl)amino)-2-fluorophenyl)-N-((1r,4r)-4-((5-fluoro-4-(3-(2-oxo-1,2-dihydropyridin-3-yl)phenyl)pyrimidin-2-yl)amino)cyclohexyl)-[1,4′-bipiperidine]-4-carboxamide]
14 | < 500 | O=C1CCC(Nc2ccc(C3CCN(CC4(O)CCN(C(=O)[C@H]5CC[C@H](Nc6ncc(F)c(-c7cccc(N8CCCOC8=O)c7)n6)CC5)CC4)CC3)c(F)c2)C(=O)N1 (stereo partly drawn) [Compound 580, trans-3-((3-fluoro-4-(1-((1-(4-((5-fluoro-4-(3-(2-oxo-1,3-oxazinan-3-yl)phenyl)pyrimidin-2-yl)amino)cyclohexane-1-carbonyl)-4-hydroxypiperidin-4-yl)methyl)piperidin-4-yl)phenyl)amino)piperidine-2,6-dione]
15 | < 500 | O=C1CCC(Nc2ccc(N3CCN(CC4(O)CCN(C(=O)[C@H]5CC[C@H](Nc6ncc(F)c(-c7cccc(N8CCCCC8=O)c7)n6)CC5)CC4)CC3)c(F)c2)C(=O)N1 (stereo partly drawn) [Compound 582, trans-3-((3-fluoro-4-(4-((1-(4-((5-fluoro-4-(3-(2-oxopiperidin-1-yl)phenyl)pyrimidin-2-yl)amino)cyclohexane-1-carbonyl)-4-hydroxypiperidin-4-yl)methyl)piperazin-1-yl)phenyl)amino)piperidine-2,6-dione]
16 | < 500 | O=C1CCC(Nc2ccc(N3CCN(CC4(O)CCN(C(=O)[C@H]5CC[C@H](Nc6ncc(F)c(-c7cccc(N8CCCOC8=O)c7)n6)CC5)CC4)CC3)c(F)c2)C(=O)N1 (stereo partly drawn) [Compound 583, trans-3-((3-fluoro-4-(4-((1-(4-((5-fluoro-4-(3-(2-oxo-1,3-oxazinan-3-yl)phenyl)pyrimidin-2-yl)amino)cyclohexane-1-carbonyl)-4-hydroxypiperidin-4-yl)methyl)piperazin-1-yl)phenyl)amino)piperidine-2,6-dione]
17 | < 500 | O=C1CCC(Nc2ccc(N3CCN(CC4(O)CCN(C(=O)[C@H]5CC[C@H](Nc6ncc(F)c(-c7cccc(N8CCOCC8=O)c7)n6)CC5)CC4)CC3)c(F)c2)C(=O)N1 (stereo partly drawn) [Compound 588]

Same assay, conditions: read-out: HiBIT-degradation MOLT4 PIP4k2C DC50 (6 hours, marked *); 6 hours of incubation time, rather than 24 hours; MOLT-4, top concentration 10 micromolar

Row | DC50 [nM] | SMILES
18 | < 500 | O=C1CCC(Nc2ccc(N3CCN(C[C@H]4CC[C@H](CNC(=O)[C@H]5CC[C@H](Nc6ncc(F)c(-c7cccc(N8CCOCC8=O)c7)n6)CC5)CC4)CC3)c(F)c2)C(=O)N1 (stereo partly drawn) [Compound 586, trans-(1r,4R)—N-(((1r,4R)-4-((4-(4-((2,6-dioxopiperidin-3-yl)amino)-2-fluorophenyl)piperazin-1-yl)methyl)cyclohexyl)methyl)-4-((5-fluoro-4-(3-(3-oxomorpholino)phenyl)pyrimidin-2-yl)amino)cyclohexane-1-carboxamide]
